Source: patent US9630955B2, “Chemical compound useful as intermediate for preparing a catechol-O-methyltransferase inhibitor” (BIAL—Portela & Cª., S.A, priority 2011, dated 2017)
Like-named read-outs stand apart in the source and are kept apart here.

How the values were obtained:
COMT in the brain = target: T1, COMT in the brain (Rattus norvegicus, UniProt P22734); assay: inhibition of COMT in the brain following oral administration to the rat; format: in vivo; settings: over a period of 8 hours post administration
T1 construct: from tissue; host or cells: rat brain
T1 sequence (P22734 1-264): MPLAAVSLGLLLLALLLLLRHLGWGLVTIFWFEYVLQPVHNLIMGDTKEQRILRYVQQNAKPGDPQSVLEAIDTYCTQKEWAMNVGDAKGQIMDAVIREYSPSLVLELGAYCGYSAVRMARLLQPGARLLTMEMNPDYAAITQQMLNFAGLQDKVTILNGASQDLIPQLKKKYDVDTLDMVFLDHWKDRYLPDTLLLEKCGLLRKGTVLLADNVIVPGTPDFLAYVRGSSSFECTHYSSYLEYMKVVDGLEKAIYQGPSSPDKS

human recombinant S-COMT = target: T2, human recombinant S-COMT (Homo sapiens, UniProt P21964)
T2 sequence (P21964 1-221 isoform P21964-2): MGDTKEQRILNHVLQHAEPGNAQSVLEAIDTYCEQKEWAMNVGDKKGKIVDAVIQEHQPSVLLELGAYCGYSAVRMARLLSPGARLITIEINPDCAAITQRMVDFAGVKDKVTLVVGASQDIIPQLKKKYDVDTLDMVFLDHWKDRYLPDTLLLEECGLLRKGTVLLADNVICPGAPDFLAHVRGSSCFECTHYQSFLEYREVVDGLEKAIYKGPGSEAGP

liver COMT = target: T3, liver COMT (Rattus norvegicus, UniProt P22734); assay: inhibition of liver COMT post oral administration to rats; format: in vivo; settings: for ED50: rat, po
T3 construct: from tissue; host or cells: rat liver
T3 sequence (P22734 1-264): T1 sequence (P22734 1-264)

Cc1ccc(C(=O)c2cc(O)c(O)c([N+](=O)[O-])c2)cc1 [tolcapone]
enzyme activity inhibited (COMT in the brain) (COMT in the brain): about 50%
inhibition of human recombinant S-COMT (in words) (human recombinant S-COMT): inhibit
enzyme activity recovery (rat liver COMT) (liver COMT; oral administration, after 9 hours): about 84%
ED50 (liver COMT; read-out: ED50 inhibiting liver COMT, rats, oral administration, at 3 hours post administration): 1.28 mg/kg
ED50 (liver COMT; read-out: ED50 inhibiting liver COMT, rats, oral administration, at 6 hours post administration): 2.08 mg/kg
